“And” between values parts separate entries of the source, which are not always exact repeats. Identical values can stand only once. Inconclusive results and toxic doses are left out.

This is an account of results in PubChem BioAssay AID192 (DTP/NCI, 2004).

The subject of the assay is BDF1 mice, B16 melanoma ip, median survival T/C. Kind of assay: NCI In Vivo Anticancer Drug Screen. Data for tumor model B16 Melanoma (intraperitoneal) in B6D2F1 (BDF1) mice. The note with it: endpoint: median survival time, higher = longer survival. The essentials: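 The ratio T/C compares compound-treated mice with vehicle-treated controls, using survival or tumor size as the endpoint in a transplantable tumor model.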

Setting [1] is: dose: 6.25 mg/kg/injection, schedule: Q01DX009 (ip), vehicle: Klucel (hydroxypropylcellulose) (HPC).
The mark [2] stands for this setting: dose: 25.0 mg/kg/injection, schedule: Q01DX009 (ip), vehicle: saline with Tween-80.
Setting [3] is: dose: 50.0 mg/kg/injection, schedule: Q01DX009 (ip), vehicle: saline with Tween-80.
Where [4] appears, read: dose: 100.0 mg/kg/injection, schedule: Q01DX009 (ip), vehicle: saline with Tween-80.
Setting [5] is: dose: 25.0 mg/kg/injection, schedule: Q01DX009 (ip), vehicle: Klucel (hydroxypropylcellulose) (HPC).
The mark [6] stands for this setting: dose: 50.0 mg/kg/injection, schedule: Q01DX009 (ip), vehicle: Klucel (hydroxypropylcellulose) (HPC).
Setting [7] is: dose: 100.0 mg/kg/injection, schedule: Q01DX009 (ip), vehicle: Klucel (hydroxypropylcellulose) (HPC).
Where [8] appears, read: dose: 200.0 mg/kg/injection, schedule: Q01DX009 (ip), vehicle: Klucel (hydroxypropylcellulose) (HPC).
Setting [9] is: dose: 100.0 mg/kg/injection, schedule: Q04DX003 (ip), vehicle: Klucel (hydroxypropylcellulose) (HPC).

In the case of `CCCCCCCCCCCCCCCC(=O)N(CCCN(CC)CC)C(C)CCCN(CC)CC` (configuration not stated), the T/C reads like this: (dose: 0.78 mg/kg/injection, schedule: Q01DX009 (ip), vehicle: water) 103 % of control; (dose: 1.56 mg/kg/injection, schedule: Q01DX009 (ip), vehicle: Klucel (hydroxypropylcellulose) (HPC)) 110 % of control; (dose: 1.56 mg/kg/injection, schedule: Q01DX009 (ip), vehicle: water) 104 % of control; (dose: 3.13 mg/kg/injection, schedule: Q01DX009 (ip), vehicle: Klucel (hydroxypropylcellulose) (HPC)) 102 % of control; (dose: 3.13 mg/kg/injection, schedule: Q01DX009 (ip), vehicle: water) 104 % of control; under setting [1], 86 % of control and 97 % of control. Moreover, where the note is “dose: 6.25 mg/kg/injection, schedule: Q01DX009 (ip), vehicle: water”, the T/C is 90 % of control.
In the case of `CC(C)(O)C(I)C[n+]1ccccc1` (configuration not stated), the T/C is 109 % of control (dose: 100.0 mg/kg/injection, schedule: Q04DX003 (ip), vehicle: saline); 101 % of control (dose: 200.0 mg/kg/injection, schedule: Q04DX003 (ip), vehicle: saline); 114 % of control (dose: 400.0 mg/kg/injection, schedule: Q04DX003 (ip), vehicle: saline).
On to `CC(=O)[O][Hg][c]1s[c]([Hg][O]C(C)=O)[c]([Hg][O]C(C)=O)[c]1[Hg][O]C(C)=O`, for which the T/C (dose: 0.75 mg/kg/injection, schedule: Q01DX009 (ip), vehicle: saline with Tween-80) is 102 % of control; the T/C (dose: 1.5 mg/kg/injection, schedule: Q01DX009 (ip), vehicle: saline with Tween-80) was 92 % of control; the T/C (dose: 3.0 mg/kg/injection, schedule: Q01DX009 (ip), vehicle: saline with Tween-80) was 87 % of control; the T/C (dose: 6.0 mg/kg/injection, schedule: Q01DX009 (ip), vehicle: saline with Tween-80) was 97 % of control.
Consider `COc1ccc(Cl)cc1N`, for which the T/C was 95 % of control under setting [2], 100 % of control under setting [3] and 105 % of control under setting [4].
As to `COc1ccc(NC(=O)Nc2ccc(C)cc2C)cc1`, the T/C was 106 % of control under setting [5], 101 % of control under setting [6], 106 % of control under setting [7] and 93 % of control under setting [8].
As for `CC1=C(/C=C/C(C)=C/C=C/C(C)=C/C=O)C(C)(C)CCC1`, the T/C (dose: 16.0 mg/kg/injection, schedule: Q01DX005 (ip), vehicle: DMSO) is 94 % of control; the T/C (dose: 32.0 mg/kg/injection, schedule: Q01DX005 (ip), vehicle: DMSO) is 88 % of control; the T/C (dose: 64.0 mg/kg/injection, schedule: Q01DX005 (ip), vehicle: DMSO) was 89 % of control.
Consider `C[C@]12CC[C@@H]3c4ccc(O)cc4CC[C@H]3[C@@H]1CC[C@@H]2O`, for which the T/C by setting is: under setting [1], 97 % of control; (dose: 12.5 mg/kg/injection, schedule: Q01DX009 (ip), vehicle: Klucel (hydroxypropylcellulose) (HPC)) 94 % of control; under setting [5], 93 % of control; under setting [6], 97 % of control; under setting [7], 88 % of control; under setting [8], 87 % of control.
In the case of `O=[N+]([O-])c1ccc(N2CCC(CCCC3CCN(c4ccc([N+](=O)[O-])cc4[N+](=O)[O-])CC3)CC2)c([N+](=O)[O-])c1`, the T/C runs as follows: under setting [5], 106 % of control; under setting [7], 112 % of control.
On to `O=C1c2ccccc2C(Cl)=C(Cl)C1(Cl)Cl`, for which the T/C reads like this: (dose: 12.5 mg/kg/injection, schedule: Q04DX003 (ip), vehicle: Klucel (hydroxypropylcellulose) (HPC)) 87 % of control; (dose: 25.0 mg/kg/injection, schedule: Q04DX003 (ip), vehicle: Klucel (hydroxypropylcellulose) (HPC)) 92 % of control.
Regarding `C/C(=C\c1ccccc1)C(=O)c1ccc(-c2ccccc2)cc1`, the T/C runs as follows: under setting [9], 103 % of control; (dose: 200.0 mg/kg/injection, schedule: Q04DX003 (ip), vehicle: Klucel (hydroxypropylcellulose) (HPC)) 95 % of control; (dose: 400.0 mg/kg/injection, schedule: Q04DX003 (ip), vehicle: Klucel (hydroxypropylcellulose) (HPC)) 106 % of control.
For `CCC(C)C(NC(=O)OC(C)(C)c1ccc(-c2ccccc2)cc1)C(=O)O` (configuration not stated), the T/C by setting is: under setting [3], 94 % of control; under setting [4], 94 % of control; (dose: 200.0 mg/kg/injection, schedule: Q01DX009 (ip), vehicle: saline with Tween-80) 91 % of control.
For `N/C=N/O`, the T/C (dose: 25.0 mg/kg/injection, schedule: Q01DX009 (ip), vehicle: saline) is 104 % of control; the T/C (dose: 50.0 mg/kg/injection, schedule: Q01DX009 (ip), vehicle: saline) was 111 % of control; the T/C (dose: 100.0 mg/kg/injection, schedule: Q01DX009 (ip), vehicle: saline) is 109 % of control; the T/C (dose: 200.0 mg/kg/injection, schedule: Q01DX009 (ip), vehicle: saline) was 117 % of control.
Consider `Cc1ccc(Cl)cc1N=Cc1ccccc1O`, for which the T/C (dose: 100.0 mg/kg/injection, schedule: Q04DX003 (ip), vehicle: saline with Tween-80) is 104 % of control; the T/C (dose: 200.0 mg/kg/injection, schedule: Q04DX003 (ip), vehicle: saline with Tween-80) was 100 % of control; the T/C (dose: 400.0 mg/kg/injection, schedule: Q04DX003 (ip), vehicle: saline with Tween-80) is 104 % of control.
As for `CCOc1cc(N)ccc1C`, the T/C under setting [6] is 93 % of control, the T/C under setting [7] is 93 % of control and the T/C under setting [8] is 95 % of control.
As for `N#Cc1ncc(C(Cl)Cl)nc1Cl`, the T/C is 96 % of control (dose: 3.13 mg/kg/injection, schedule: Q01DX009 (ip), vehicle: saline + alcohol); 91 % of control (dose: 6.25 mg/kg/injection, schedule: Q01DX009 (ip), vehicle: saline + alcohol); 93 % of control (dose: 12.5 mg/kg/injection, schedule: Q01DX009 (ip), vehicle: saline + alcohol); 89 % of control (dose: 25.0 mg/kg/injection, schedule: Q01DX009 (ip), vehicle: saline + alcohol); 94 % of control under setting [2].
As to `CCOc1ccccc1NC(=O)Nc1ccccc1OC`, the T/C under setting [7] is 86 % of control; the T/C under setting [8] is 98 % of control; the T/C (dose: 400.0 mg/kg/injection, schedule: Q01DX009 (ip), vehicle: Klucel (hydroxypropylcellulose) (HPC)) is 89 % of control.
With `O=C(Nc1cccc(C(F)(F)F)c1)NC1CCCCC1`, the T/C (dose: 100.0 mg/kg/injection, schedule: Q04DX003 (ip), vehicle: gum acacia) is 87 % of control; the T/C (dose: 200.0 mg/kg/injection, schedule: Q04DX003 (ip), vehicle: gum acacia) was 89 % of control; the T/C (dose: 400.0 mg/kg/injection, schedule: Q04DX003 (ip), vehicle: gum acacia) is 87 % of control.
Consider `c1ccc2c(CNC3CCCCC3)c[nH]c2c1`, for which the T/C by setting is: under setting [5], 89 % of control; under setting [6], 97 % of control; under setting [9], 92 % of control.
For the compound `O.O.[NH-]C1CCCCC1[NH-].[Pt+2]` (configuration not stated), the T/C was 91 % of control and 111 % of control (dose: 0.62 mg/kg/injection, schedule: Q01DX009 (ip), vehicle: dextrose); 118 % of control (dose: 1.25 mg/kg/injection, schedule: Q01DX009 (ip), vehicle: dextrose); 120 % of control (dose: 1.25 mg/kg/injection, schedule: Q01DX009 (ip), vehicle: other); 124 % of control (dose: 2.5 mg/kg/injection, schedule: Q01DX009 (ip), vehicle: dextrose); 120 % of control (dose: 2.5 mg/kg/injection, schedule: Q01DX009 (ip), vehicle: other); 155 % of control (dose: 10.0 mg/kg/injection, schedule: Q01DX009 (ip), vehicle: other).
For the compound `N#Cc1ccc(NC(=O)Nc2nccs2)cc1`, the T/C (dose: 12.5 mg/kg/injection, schedule: Q01DX009 (ip), vehicle: distilled water + Tween-80) was 115 % of control.
Consider `C[C@]1(O)CC[C@H]2[C@@H]3CCC4=CC(=O)CC[C@]4(C)[C@@]3(F)[C@@H](O)C[C@@]21C`, for which the T/C (dose: 12.5 mg/kg/injection, schedule: Q02DX009 (ip), vehicle: Klucel (hydroxypropylcellulose) (HPC)) is 92 % of control; the T/C (dose: 25.0 mg/kg/injection, schedule: Q02DX009 (ip), vehicle: Klucel (hydroxypropylcellulose) (HPC)) was 100 % of control; the T/C (dose: 50.0 mg/kg/injection, schedule: Q02DX009 (ip), vehicle: Klucel (hydroxypropylcellulose) (HPC)) is 120 % of control; the T/C (dose: 100.0 mg/kg/injection, schedule: Q02DX009 (ip), vehicle: Klucel (hydroxypropylcellulose) (HPC)) is 107 % of control; the T/C (dose: 200.0 mg/kg/injection, schedule: Q02DX009 (ip), vehicle: Klucel (hydroxypropylcellulose) (HPC)) was 99 % of control; the T/C (dose: 400.0 mg/kg/injection, schedule: Q02DX009 (ip), vehicle: Klucel (hydroxypropylcellulose) (HPC)) was 92 % of control.
